Experimental data as given in article PMC9579011, “Coprinopsis cinerea dioxygenase is an oxygenase forming 10(S)-hydroperoxide of linoleic acid, essential for mushroom alcohol, 1-octen-3-ol, synthesis” (The Journal of Biological Chemistry, 2022).

Assays:
CcDOX1 = biological target: T1, CcDOX1 (Coprinopsis cinerea, UniProt A8N8W9); experiment: LC-MS/MS product peak area, Hill fit of [S]-v plot; type: biochemical; settings: Hill coefficient n = 1.9 ± 0.27; 10-500 μM substrate, 30 min on ice; bead-bound immunopurified EGFP fusion; lysis buffer pH 7.4
T1 construct: gene CC1G_00844; full length, 1066 aa, C-terminal EGFP fusion, expressed in BmN4 (Bombyx mori) cells, immunopurified on anti-GFP beads
T1 sequence (A8N8W9 1-1066): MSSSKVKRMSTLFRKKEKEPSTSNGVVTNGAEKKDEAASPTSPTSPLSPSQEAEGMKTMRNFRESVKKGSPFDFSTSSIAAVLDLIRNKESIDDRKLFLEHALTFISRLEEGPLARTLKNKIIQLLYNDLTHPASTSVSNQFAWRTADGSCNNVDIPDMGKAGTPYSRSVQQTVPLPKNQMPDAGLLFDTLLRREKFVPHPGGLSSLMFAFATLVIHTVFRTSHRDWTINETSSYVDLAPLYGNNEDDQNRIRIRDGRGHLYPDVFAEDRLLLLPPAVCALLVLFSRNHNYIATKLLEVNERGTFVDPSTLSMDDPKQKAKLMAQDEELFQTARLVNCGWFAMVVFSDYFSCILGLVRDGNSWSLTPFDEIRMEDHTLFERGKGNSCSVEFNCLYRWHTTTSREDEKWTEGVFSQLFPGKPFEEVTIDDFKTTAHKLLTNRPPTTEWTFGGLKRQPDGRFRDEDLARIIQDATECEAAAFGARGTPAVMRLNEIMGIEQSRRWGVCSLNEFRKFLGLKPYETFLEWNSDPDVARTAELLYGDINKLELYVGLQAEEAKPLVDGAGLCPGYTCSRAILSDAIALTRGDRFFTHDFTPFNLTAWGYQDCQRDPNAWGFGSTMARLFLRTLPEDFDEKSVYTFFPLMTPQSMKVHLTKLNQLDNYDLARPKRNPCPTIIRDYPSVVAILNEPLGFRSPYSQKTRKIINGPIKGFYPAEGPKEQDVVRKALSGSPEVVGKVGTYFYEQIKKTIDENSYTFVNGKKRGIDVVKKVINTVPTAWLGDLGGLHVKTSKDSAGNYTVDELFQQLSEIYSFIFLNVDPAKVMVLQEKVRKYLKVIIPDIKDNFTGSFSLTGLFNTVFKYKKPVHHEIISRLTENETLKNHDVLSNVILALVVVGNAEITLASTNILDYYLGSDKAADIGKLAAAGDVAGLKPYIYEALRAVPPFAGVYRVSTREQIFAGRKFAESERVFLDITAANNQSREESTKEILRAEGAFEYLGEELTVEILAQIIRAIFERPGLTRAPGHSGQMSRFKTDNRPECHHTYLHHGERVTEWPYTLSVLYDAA

CcDOX2 = biological target: T2, CcDOX2 (Coprinopsis cinerea, UniProt A8NN01); experiment: LC-MS/MS of products after triphenylphosphine reduction; type: biochemical; settings: immunopurified EGFP fusion; 8-hydroperoxide product (tentative)
T2 construct: gene CC1G_09914; full length, 1118 aa, C-terminal EGFP fusion, expressed in BmN4 (Bombyx mori) cells, immunopurified with anti-GFP antibody
T2 sequence (A8NN01 1-1118): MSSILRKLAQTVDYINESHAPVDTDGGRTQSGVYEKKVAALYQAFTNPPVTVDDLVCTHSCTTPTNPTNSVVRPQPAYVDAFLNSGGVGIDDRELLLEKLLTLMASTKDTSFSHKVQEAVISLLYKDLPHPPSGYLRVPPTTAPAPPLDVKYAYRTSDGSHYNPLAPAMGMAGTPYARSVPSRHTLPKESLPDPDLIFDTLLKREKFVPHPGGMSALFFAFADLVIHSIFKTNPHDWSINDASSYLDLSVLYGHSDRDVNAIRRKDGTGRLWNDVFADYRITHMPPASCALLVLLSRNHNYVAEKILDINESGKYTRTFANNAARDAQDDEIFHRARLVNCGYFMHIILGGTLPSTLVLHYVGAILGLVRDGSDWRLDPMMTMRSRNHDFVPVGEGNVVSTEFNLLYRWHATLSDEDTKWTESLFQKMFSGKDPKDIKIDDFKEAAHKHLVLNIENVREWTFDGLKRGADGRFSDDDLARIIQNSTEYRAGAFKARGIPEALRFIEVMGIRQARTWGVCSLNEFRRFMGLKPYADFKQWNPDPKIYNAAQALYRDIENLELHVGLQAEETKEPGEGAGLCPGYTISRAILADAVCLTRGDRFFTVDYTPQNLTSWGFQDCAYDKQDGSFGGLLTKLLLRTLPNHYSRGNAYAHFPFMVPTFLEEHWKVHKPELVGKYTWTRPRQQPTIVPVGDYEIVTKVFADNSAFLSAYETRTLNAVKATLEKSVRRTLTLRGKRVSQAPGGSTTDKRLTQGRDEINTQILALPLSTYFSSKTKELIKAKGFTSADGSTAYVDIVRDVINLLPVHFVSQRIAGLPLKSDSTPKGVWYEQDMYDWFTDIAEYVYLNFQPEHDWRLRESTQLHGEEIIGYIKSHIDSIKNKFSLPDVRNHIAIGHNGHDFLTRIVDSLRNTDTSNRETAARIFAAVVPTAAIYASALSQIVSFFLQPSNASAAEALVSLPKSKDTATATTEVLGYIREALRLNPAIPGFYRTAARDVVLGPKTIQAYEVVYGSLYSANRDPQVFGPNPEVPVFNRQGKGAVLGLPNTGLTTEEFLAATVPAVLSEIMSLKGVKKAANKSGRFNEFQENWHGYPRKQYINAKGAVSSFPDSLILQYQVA

CCCCC/C=C\C/C=C\CCCCCCCC(=O)O [linoleic acid]
KA (CcDOX1): 78 ± 9.74 µM | LC-MS/MS of products after triphenylphosphine reduction (CcDOX2): Linoleic acid was added to the purified recombinant CcDOX1 and CcDOX2
